Molecular target: T1, USP28 (His-tagged USP28-FL-mammalian) (Homo sapiens, UniProt Q96RU2)
T1 construct: Expression of USP28 (1-1077)-TEV-6*His (pTT5 vector); made in house; host or cells: Expi293f cells (pTT5 vector)
T1 sequence (Q96RU2 1-1077): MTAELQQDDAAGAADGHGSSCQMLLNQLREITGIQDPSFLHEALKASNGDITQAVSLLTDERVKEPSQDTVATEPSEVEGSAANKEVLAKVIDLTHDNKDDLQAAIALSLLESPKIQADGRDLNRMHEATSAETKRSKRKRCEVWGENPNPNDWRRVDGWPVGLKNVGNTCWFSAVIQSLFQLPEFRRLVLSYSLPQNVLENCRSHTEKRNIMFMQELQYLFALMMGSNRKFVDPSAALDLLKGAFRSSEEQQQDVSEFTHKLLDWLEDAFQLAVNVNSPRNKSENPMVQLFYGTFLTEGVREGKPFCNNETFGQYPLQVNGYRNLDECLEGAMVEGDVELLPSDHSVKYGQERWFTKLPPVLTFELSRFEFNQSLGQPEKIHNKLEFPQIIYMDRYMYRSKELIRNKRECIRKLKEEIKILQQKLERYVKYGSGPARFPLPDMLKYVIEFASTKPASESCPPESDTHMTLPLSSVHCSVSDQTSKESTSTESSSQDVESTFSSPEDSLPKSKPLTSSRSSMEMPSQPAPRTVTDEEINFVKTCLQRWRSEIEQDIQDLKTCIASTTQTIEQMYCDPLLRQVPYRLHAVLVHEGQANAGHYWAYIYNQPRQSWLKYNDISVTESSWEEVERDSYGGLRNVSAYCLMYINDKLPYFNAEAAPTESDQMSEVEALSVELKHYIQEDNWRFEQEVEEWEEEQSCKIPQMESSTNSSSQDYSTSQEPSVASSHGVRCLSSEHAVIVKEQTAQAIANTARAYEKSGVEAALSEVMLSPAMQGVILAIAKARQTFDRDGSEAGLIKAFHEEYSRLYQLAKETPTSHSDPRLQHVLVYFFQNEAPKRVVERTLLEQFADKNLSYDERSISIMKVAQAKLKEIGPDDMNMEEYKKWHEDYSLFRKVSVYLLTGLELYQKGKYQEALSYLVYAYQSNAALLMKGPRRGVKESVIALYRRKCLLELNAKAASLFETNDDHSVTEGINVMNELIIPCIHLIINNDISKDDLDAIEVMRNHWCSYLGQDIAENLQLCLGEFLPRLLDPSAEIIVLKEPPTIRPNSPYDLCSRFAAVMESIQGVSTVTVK
Assay: Ubiquitin-Rhodamine 110 Assay for USP28 Activity, Example A-1(a)
Type: biochemical
Settings: Ubiquitin-Rhodamine 110 assay, Example A-1(a); read-out: USP28 A-1(a) IC50 range
Outline: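 IC50 from 4-parameter logistic fit of percent inhibition versus no-enzyme and DMSO controls; compounds 25 μM to 1.3 nM, 3-fold. Ub-Rh110 cleavage (25 nM, below Km) by […] mammalian-expressed USP28-FL-His ran 45 min at room temperature, stopped with 10 mM citric acid, read ex 485/em 535.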

SMILES | IC50 [nM]
Cc1ccc2c(N)c(C(=O)N[C@H]3CCc4nc(N5C[C@H](N)[C@]6(CCCO6)C5)ccc4C3)sc2n1 [Example 390, 3-amino-N-[(6S)-2-[(5S,9S)-9-amino-1-oxa-7-azaspiro[4.4]nonan-7-yl]-5,6,7,8-tetrahydroquinolin-6-yl]-6-methylthieno[2,3-b]pyridine-2-carboxamide] | 200 to 2000
Cc1ccc2c(N)c(C(=O)N[C@@H]3CCc4cc(N5CC6CNCC(C5)O6)ccc4C3)sc2n1 [Example 451, N-((2R)-6-(9-oxa-3,7-diazabicyclo[3.3.1]nonan-3-yl)-1,2,3,4-tetrahydronaphthalen-2-yl)-3-amino-6-methylthieno[2,3-b]pyridine-2-carboxamide] | 50 to 200
Cc1ccc2c(N)c(C(=O)N[C@H]3COc4cc(N5CCN[C@@H](C(F)(F)F)C5)ccc4C3)sc2n1 [Example 3-11, 3-amino-6-methyl-N-((R)-7-((R)-3-(trifluoromethyl)piperazin-1-yl)chroman-3-yl)thieno[2,3-b]pyridine-2-carboxamide] | 50 to 200
O=C(N[C@H]1COc2cc(N3CCNCC3)ccc2C1)c1ccc(NCc2ccc3c(c2)CCO3)nc1 [Example 472, (R)-6-(((2,3-dihydrobenzofuran-5-yl)methyl)amino)-N-(7-(piperazin-1-yl)chroman-3-yl)nicotinamide] | 200 to 2000

— patent US11524966B1 (Valo Early Discovery, Inc., priority 2017, dated 2022)
